{
  "source": "paper PMC3812394",
  "about": "(Biochemistry, 2013)",
  "biological_target": "T1, Chloroperoxidase (CPO) (Leptoxyphium fumago, UniProt P04963)",
  "T1 sequence (P04963 21-319)": "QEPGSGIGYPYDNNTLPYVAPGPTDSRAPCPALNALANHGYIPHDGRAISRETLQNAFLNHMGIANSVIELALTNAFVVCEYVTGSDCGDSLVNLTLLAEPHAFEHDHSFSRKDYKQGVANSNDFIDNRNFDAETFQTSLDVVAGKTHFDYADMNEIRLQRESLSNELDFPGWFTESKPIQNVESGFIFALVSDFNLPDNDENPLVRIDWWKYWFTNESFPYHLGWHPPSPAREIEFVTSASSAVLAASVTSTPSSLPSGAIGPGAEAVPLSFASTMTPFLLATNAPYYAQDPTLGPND",
  "test": "paramagnetic NMR T1 relaxation titration with purified CPO",
  "format": "binding",
  "data": [
    {"molecule": "c1ccc2[nH]ccc2c1", "note": "[indole]", "values": [
      {"measurement": "Kd", "result": "~21", "unit": "mM"}
    ]}
  ]
}
